# “And” between values parts separate entries of the source, which are not always exact repeats. Equal values may be shown once.
# How the values were obtained:
# CDK2/cyclin E = target: T1, CDK2/cyclin E (Homo sapiens, UniProt P24941); assay: CDK2/cyclin E kinase assay; type: biochemical; details: for IC50: ten concentrations, dose response curves, read-out: CDK2/cyclin E inhibitory activity IC50; for CDK2 potency relative to compound 1: higher potency than 1
# T1 construct: purchased Milipore (Billerica, Mass.)
# Experimental: CDK1/cyclin B, CDK2/cyclin E were purchased from Milipore (Billerica, Mass.). The kinase activity was tested in buffer (8 mM MOPS pH 7.0, 0.2 mM EDTA, 10 mM MgAcetate), with 0.1 mg/mL histone H1, in the presence of 45 µM [—^33P] ATP (500 cpm/pmol) for CDK1 or 120 μM [γ—^33P] ATP (500 cpm/pmol) for CDK2 in a final reaction volume of […]. The reaction was initiated by the addition of the MgATP mix. After incubation for 40 min at 30° C., the reaction was stopped by the addition of 5 μL of 3% phosphoric acid solution. 10 μL aliquots of supernatant were spotted onto 2.5 cm×3 cm pieces of Whatman […] phosphocellulose paper, and 20 s later, the filters were washed three times for 5 min in 75 mM phosphoric acid and once in methanol prior to drying. The […] filters were counted in the presence of 1 mL of ACS (Amersham) scintillation fluid. The activities are usually expressed as a percentage of the maximal activity, i.e., in the absence of inhibitors. Controls were applied with appropriate dilutions of DMSO.
# [1] = test system: HT1080 human fibro sarcoma cell; assay: SRB cell proliferation assay, HT1080; type: cell-based; details: HT-1080, 72 h, 3 days
# Experimental: (§1) ^a A series of indirubin derivatives were tested at five concentrations for their effects on various human cancer cell lines using SRB assay, as described in the Experimental Section.
# (§2) Cells (A549, HT1080, HCT116, K562, SNU638, KB, MCF-7) were counted, diluted to 5×10^4 cells/mL with fresh medium (MEME, DMEM or RPMI containing 10% FBS), and added 190 μL of cell suspension to 96-well plates containing various concentrations of test compounds (10 μL in 10% aqueous DMSO). Test plates were incubated for 3 days at 37° C. in CO2 incubator. For zero day controls, cells were incubated for 30 min at 37° C. in CO2 incubator. All treatments were performed in triplicate. After the incubation periods, cells were fixed with 50 μL of cold 50% TCA at 4° C. for 30 min, washed 5 times with tap water, and air-dried. The fixed cells were stained with 0.4% SRB solution in 1% aqueous acetic acid at room temperature for 1 h. Free SRB solution was then removed by rinsing 5 times with 1% acetic acid, and air-dried. The bound dye was dissolved with 200 µL of 10 mM Tris-base (pH 10.0), and absorbance was determined at 515 nm using an ELISA microplate reader. Finally, the absorbance values obtained with each of the treatment procedures were averaged, and the average values obtained with the zero day control were subtracted.
# [2] = test system: A549 human lung cancer cell; assay: SRB cell proliferation assay, A549; type: cell-based; details: A549, 72 h, 3 days
# Experimental: as §1, §2
# [3] = test system: MCF-7 human breast cancer cell; assay: SRB cell proliferation assay, MCF-7; type: cell-based; details: MCF7, 72 h, 3 days
# Experimental: as §1, §2
# [4] = test system: HCT116 human colon cancer cell; assay: SRB cell proliferation assay, HCT116; type: cell-based; details: 3 days
# Experimental: as §1, §2
# [5] = test system: KB human nasopharyngeal cancer cell; assay: SRB cell proliferation assay, KB; type: cell-based; details: 72 h, 3 days
# Experimental: as §1, §2
# [6] = test system: SNU638 human stomach cancer cell; assay: SRB cell proliferation assay, SNU638; type: cell-based; details: SNU-638, 72 h, 3 days
# Experimental: as §1, §2
# K562 human leukemia cell = assay: SRB cell proliferation assay, K562; type: cell-based; details: K562, 72 h, 3 days
# Experimental: as §1, §2
# [7] = test system: several human cancer cell lines; assay: SRB cell proliferation assay, summary over cell lines; type: cell-based; details: for IC50: Homo sapiens, range over cell lines, read-out: anti-proliferative IC50, range over cancer cell lines
# Experimental: as §1, §2
SMILES,IC50 (CDK2/cyclin E),IC50 [1] [µM],IC50 [2] [µM],IC50 [3] [µM],"IC50 ([4]; Homo sapiens, HCT-116, 72 h) [µM]",IC50 [5] [µM],IC50 [6] [µM],IC50 (K562 human leukemia cell) [µM],IC50 [7] [µM],IC50 [4] [µM],CDK2 potency relative to compound 1 (CDK2/cyclin E),selectivity for CDK2 over CDK1 (CDK2/cyclin E; CDK2 vs CDK1) [fold],CDK2 inhibitory effect relative to 16b (CDK2/cyclin E; enhanced compared with 16b) [fold],anti-proliferative activity in words [7]
"O=C1Nc2ccc([N+](=O)[O-])cc2/C1=C1/Nc2ccccc2C1=NO [Compound 1, 5-nitroindirubin-3′-oxime, reference compound]",0.007 µM and 0.00735 µM,,,,,,,,,,,,,
"O=C1Nc2ccc(Cl)cc2/C1=C1/Nc2ccc(O)cc2C1=NO [Compound 11a, (2′Z, 3′E)-5′-Hydroxy-5-chloro-indirubin-3′-oxime]",0.00527 µM,2.92,16.4,10.7,3.5,10.2,5.14,12.2,,,,,,
"O=C1Nc2ccc(F)cc2/C1=C1/Nc2ccc(O)cc2C1=NO [Compound 11c, (2′Z, 3′E)-5′-Hydroxy-5-fluoro-indirubin-3′-oxime]",0.00225 µM,0.68,4.09,2.6,1.66,4.6,2.11,1.4,,,,,,
"O=C1Nc2ccc(OC(F)(F)F)cc2/C1=C1/Nc2ccc(O)cc2C1=NO [Compound 11d, (2′Z, 3′E)-5′-Hydroxy-5-trifluoromethoxy-indirubin-3′-oxime]",0.00832 µM,2.28,16.9,4.2,2.25,5.8,2.96,5.9,,,,,,
"O=C1Nc2ccc(Cl)cc2/C1=C1/Nc2ccc(Cl)cc2C1=NO [Compound 12a, (2′Z, 3′E)-5′-Chloro-5-chloro-indirubin-3′-oxime]",0.0111 µM,12.2,> 20,6.1,1.86,11.9,2.57,17.2,,,,,,
"O=C1Nc2ccc(F)cc2/C1=C1/Nc2ccc(Cl)cc2C1=NO [Compound 12c, (2′Z, 3′E)-5′-Chloro-5-fluoro-indirubin-3′-oxime]",0.0101 µM,3.62,18.9,3.5,1.7,3.6,2.28,14.7,,,,,,
"O=C1Nc2ccc(OC(F)(F)F)cc2/C1=C1/Nc2ccc(Cl)cc2C1=NO [Compound 12d, (2′Z, 3′E)-5′-Chloro-5-trifluoromethoxy-indirubin-3′-oxime]",0.0762 µM,17.7,> 20,4.2,3.79,2.8,2.71,> 20,,,,,,
"O=C1Nc2ccc(Cl)cc2/C1=C1/Nc2ccc(F)cc2C1=NO [Compound 13a, (2′Z, 3′E)-5′-Fluoro-5-chloro-indirubin-3′-oxime]",0.00801 µM,5.33,> 20,7,3.3,9.1,6.32,7.14,,,,,,
"O=C1Nc2ccc([N+](=O)[O-])cc2/C1=C1/Nc2ccc(F)cc2C1=NO [Compound 13b, (2′Z, 3′E)-5′-Fluoro-5-nitro-indirubin-3′-oxime]",0.00171 µM,0.64,0.57,0.9,~0.3,0.9,0.94,0.46,0.2 to 3.3,0.28,approximately 4 fold,,,
"O=C1Nc2ccc(F)cc2/C1=C1/Nc2ccc(F)cc2C1=NO [Compound 13c, (2′Z, 3′E)-5′-Fluoro-5-fluoro-indirubin-3′-oxime]",0.00183 µM,8.6,10.3,6.57,13.5,13.2,2.23,15.9,,,approximately 4 fold,,,
"O=C1Nc2ccc(OC(F)(F)F)cc2/C1=C1/Nc2ccc(F)cc2C1=NO [Compound 13d, (2′Z, 3′E)-5′-Fluoro-5-trifluoromethoxy-indirubin-3′-oxime]",0.0603 µM,3.95,19.9,4.1,1.5,3.8,1.89,1.5,,,,,,
"Cc1ccc2c(c1)C(=NO)/C(=C1/C(=O)Nc3ccc(Cl)cc31)N2 [Compound 14a, (2′Z, 3′E)-5′-Methyl-5-chloro-indirubin-3′-oxime]",,> 20,> 20,8.79,18.8,5.18,12.7,> 20,,,,,,
"Cc1ccc2c(c1)C(=NO)/C(=C1/C(=O)Nc3ccc([N+](=O)[O-])cc31)N2 [Compound 14b, (2′Z, 3′E)-5′-Methyl-5-nitro-indirubin-3′-oxime]",0.00868 µM,3.92,> 20,1.06,1.41,2.1,1.06,0.8,0.8 to 1,,,7,270,
"Cc1ccc2c(c1)C(=NO)/C(=C1/C(=O)Nc3ccc(F)cc31)N2 [Compound 14c, (2′Z, 3′E)-5′-Methyl-5-fluoro-indirubin-3′-oxime]",,> 20,> 20,10.5,> 20,10.6,11.5,> 20,,,,,,
"Cc1ccc2c(c1)C(=NO)/C(=C1/C(=O)Nc3ccc(OC(F)(F)F)cc31)N2 [Compound 14d, (2′Z, 3′E)-5′-Methyl-5-trifluoromethoxy-indirubin-3′-oxime]",,> 20,> 20,7.3,> 20,8.13,> 20,> 20,,,,,,
"COc1ccc2c(c1)C(=NO)/C(=C1/C(=O)Nc3ccc([N+](=O)[O-])cc31)N2 [Compound 16a, (2′Z, 3′E)-5′-Methoxy-5-nitro-indirubin-3′-oxime]",2.95 µM,> 20,> 20,> 20,> 20,> 20,> 20,> 20,,,,,,
"COc1ccc2c(c1)C(=NO)/C(=C1/C(=O)Nc3ccc(F)cc31)N2 [Compound 16b, (2′Z, 3′E)-5′-Methoxy-5-fluoro-indirubin-3′-oxime]",4.12 µM,4.84,6.71,> 20,3.59,> 20,13.6,5.29,,,,,,moderate anti-proliferative activity
"COc1ccc2c(c1)C(=NO)/C(=C1/C(=O)Nc3ccc(OC(F)(F)F)cc31)N2 [Compound 16c, (2′Z, 3′E)-5′-Methoxy-5-trifluoromethoxy-indirubin-3′-oxime]",8.62 µM,> 20,> 20,13,> 20,20,> 20,> 20,,,,,,

# Source: US8859783B2, “Indirubin-3′-oxime derivatives as potent cyclin dependent kinase inhibitors” (Anygen Co., Ltd., priority 2010, dated 2014)
